Values quoted from earlier work as cited in patent publication US20260020560A1, “AG[…] DIHYDROJASMONATE COMPOSITIONS” (priority 2022, published 2026).

SMILES	pKa at 25° C.
O=S(=O)(O)CCN1CCN(CCO)CC1 [HEPES, 4-(2-hydroxyethyl)-1-piperazineethanesulfonic acid]	7.48
O=S(=O)(O)CC(O)CNC(CO)(CO)CO (centres unmarked) [TAPSO, 3-[N-tris(hydroxymethyl)methyl-amino]-2-hydroxypropanesulfonic acid]	7.635
